# According to patent publication US8268884B2, “Derivatives of substituted tartaric acid and usage for preparing beta-secretase inhibitors” (Institute of Pharmacology and Toxicology Academy of …, priority 2006, dated 2012):
# Molecular target: BACE1 (Homo sapiens, UniProt P56817)
# Test: Determination of BACE1-inhibiting activity (fluorescence substrate cleavage)
# Assay type: biochemical
# Conditions: compound 100 μM; BACE1 1.0 U/ml; substrate 750 nM Rh-EVNLDAEFK-Quencher; sodium acetate buffer pH 4.5; 25° C., 60 minutes; read-out: Inhibitory rate (%)
# Protocol: Determination of BACE1-Inhibiting Activity
# A sodium acetate analytical buffer solution ([…], pH 4.5) containing BACE1 (1.0 U/ml), a substrate of BACE1 (750 nM Rh-EVNLDAEFK-Quencher), a compound of the present invention (100 μM) was incubated at 25° C. for 60 minutes. The fluorescence intensity was determined by using a TECANGENios fluorimeter with a slit width of 10 nm, an excitation wavelength of 535 nm and an emission wavelength of 585 nm. Inhibitory rate(%)={1−[(S−S0)/(C−C0)]}*100%
# C: the fluorescence intensity of the control (BACE1, substrate and analytical buffer solution) as determined after incubating for 60 minutes.
# C0: the fluorescence intensity of the control (BACE1, substrate and analytical buffer solution) as determined after incubating for 0 minute.
# S: the fluorescence intensity of the sample (BACE1, substrate, compound of the present invention and analytical buffer solution) as determined after incubating for 60 minutes.
# S0: the fluorescence intensity of the sample (BACE1, substrate, compound of the present invention and analytical buffer solution) as determined after incubating for 0 minute.
# Chain of BACE1 (P56817 46-501): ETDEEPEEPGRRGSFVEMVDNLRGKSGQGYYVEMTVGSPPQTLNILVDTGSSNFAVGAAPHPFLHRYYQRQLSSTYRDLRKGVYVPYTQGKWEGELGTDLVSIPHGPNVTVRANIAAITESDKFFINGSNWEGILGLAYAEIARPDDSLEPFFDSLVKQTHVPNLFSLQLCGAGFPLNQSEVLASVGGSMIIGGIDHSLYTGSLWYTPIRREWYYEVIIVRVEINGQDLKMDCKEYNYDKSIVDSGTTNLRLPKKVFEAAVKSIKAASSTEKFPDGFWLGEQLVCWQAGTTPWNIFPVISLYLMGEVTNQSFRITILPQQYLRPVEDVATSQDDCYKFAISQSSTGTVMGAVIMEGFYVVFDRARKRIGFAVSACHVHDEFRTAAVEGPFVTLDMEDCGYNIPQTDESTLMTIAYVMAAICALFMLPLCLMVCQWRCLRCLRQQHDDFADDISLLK
row,Structure (SMILES),inhibition at 100 µM [%]
1,"COC(=O)c1cc(NC(=O)[C@H](O)[C@@H](O)C(=O)NCc2ccccc2)cc(C(=O)OC)c1 [Example 16, dimethyl L-(2R,3R)-5-(3-benzylcarbamoyl-2,3-dihydroxy-propionylamino)-isophthalate]",26.5
2,"COC(=O)CCCNC(=O)[C@H](OC(C)=O)[C@@H](OC(C)=O)C(=O)Nc1ccc(Oc2ccccc2)cc1 [Example 3, methyl L-(2R,3R)-4-[2,3-diacetoxy-3-(4-phenoxy-phenylcarbamoyl)-propionylamino]-butyrate]",39
3,"COC(=O)c1ccc(CNC(=O)[C@H](O)[C@@H](O)C(=O)Nc2ccc3ccccc3c2)cc1 [Example 17, methyl L-(2R,3R)-4-{[2,3-dihydroxy-3-(naphthyl-2-carbamoyl)-propionylamino]methyl}-benzoate]",45.3
4,"COC(=O)[C@H](Cc1ccccc1)NC(=O)[C@H](O)[C@@H](O)C(=O)Nc1ccc2ccccc2c1 [Example 19, methyl L-(2R,3R)-2-[2,3-dihydroxy-3-(naphthalen-2-ylcarbamoyl)-propionylamino]-3-phenyl-propionate]",35

# The next lines start with the values.
row,inhibition at 100 µM [%],Structure (SMILES)
1,22.3,"COC(=O)C1CCC(CNC(=O)[C@H](O)[C@@H](O)C(=O)Nc2ccc3ccccc3c2)CC1 (stereo partly drawn) [Example 18, methyl L-(2R,3R)-4-{[2,3-dihydroxy-3-(naphthyl-2-carbamoyl)-propionylamino]methyl}-cyclohexanecarboxylate]"
2,22.5,"O=C(O)CCCNC(=O)[C@H](O)[C@@H](O)C(=O)NCc1ccccc1 [Example 14, L-(2R,3R)-4-(3-benzylcarbamoyl-2,3-dihydroxy-propionylamino)-butyric acid]"

# Tested on: not given
# Test: not given
# Conditions: not given
row,Structure (SMILES),melting point [°C]
1,"O=C(O)[C@H](Cc1ccccc1)NC(=O)[C@H](O)[C@@H](O)C(=O)NCc1ccccc1 [Example 10, L-(2R,3R)-2-(3-benzylcarbamoyl-2,3-dihydroxy-propionylamino)-3-phenyl-propionic acid]",236 to 238
2,"O=C(O)c1ccc(CNC(=O)[C@H](O)[C@@H](O)C(=O)NCc2ccccc2)cc1 [Example 12, L-(2R,3R)-4-[(3-benzylcarbamoyl-2,3-dihydroxy-propionylamino)methyl]-benzoic acid]",177 to 178
3,"COC(=O)CCCNC(=O)[C@H](O)[C@@H](O)C(=O)NCc1ccccc1 [Example 13, methyl L-(2R,3R)-4-(3-benzylcarbamoyl-2,3-dihydroxy-propionylamino)-butyrate]",142 to 145
4,"COC(=O)c1ccc(CNC(=O)[C@H](O)[C@@H](O)C(=O)NCc2ccccc2)cc1 [Example 8, methyl L-(2R,3R)-4-[(3-benzylcarbamoyl-2,3-dihydroxy-propionylamino)methyl]-benzoate]",205 to 206

# Further lines, results first:
row,melting point [°C],Structure (SMILES)
1,153 to 154,"COC(=O)C1CCC(CNC(=O)[C@H](O)[C@@H](O)C(=O)NCc2ccccc2)CC1 (stereo partly drawn) [Example 11, methyl L-(2R,3R)-4-(3-benzylcarbamoyl-2,3-dihydroxy-propionylaminomethyl)-cyclohexanecarboxylate]"
2,169 to 170,"O=C(O)CCCNC(=O)[C@H](O)[C@@H](O)C(=O)NCc1ccccc1 [Example 14, L-(2R,3R)-4-(3-benzylcarbamoyl-2,3-dihydroxy-propionylamino)-butyric acid]"
3,236 to 238,"O=C(O)C1CCC(CNC(=O)[C@H](O)[C@@H](O)C(=O)NCc2ccccc2)CC1 (stereo partly drawn) [Example 15, L-(2R,3R)-4-[(3-benzylcarbamoyl-2,3-dihydroxy-propionylamino)methyl]-cyclohexanecarboxylic acid]"
